# Laboratory results reported in article PMC10746543, “Design principles for cyclin K molecular glue degraders” (Nature Chemical Biology, 2023).
# Where “and” joins values, the source holds several entries; their conditions need not be identical. Equal values may be shown once. Read-outs that look alike come from different tables or passages of the source.
# Experiments:
# [1] = target: T1, CDK9–cyclin T (Homo sapiens, UniProt P50750); experiment: Lanthascreen kinase binding assay, CDK9; conditions: for IC50: Supplementary Table 2, read-out: Lanthascreen IC50 [nM] CDK9; for Lanthascreen TR-FRET signal (raw ratio), sheet CDK9: third titration set (r25), duplicates
# T1 construct: purchased Thermo Fisher
# T1 sequence (P50750 whole entry): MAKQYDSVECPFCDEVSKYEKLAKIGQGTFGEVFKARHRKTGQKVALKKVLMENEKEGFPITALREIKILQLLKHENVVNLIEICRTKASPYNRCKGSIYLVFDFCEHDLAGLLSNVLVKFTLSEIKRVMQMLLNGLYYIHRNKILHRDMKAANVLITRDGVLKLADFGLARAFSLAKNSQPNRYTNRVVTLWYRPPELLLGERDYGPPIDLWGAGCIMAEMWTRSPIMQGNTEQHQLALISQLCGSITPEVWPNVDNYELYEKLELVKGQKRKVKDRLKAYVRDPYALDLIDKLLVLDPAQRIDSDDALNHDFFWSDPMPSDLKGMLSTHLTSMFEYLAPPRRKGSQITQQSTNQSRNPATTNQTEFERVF
# T1 sequence (O60563 whole entry partner): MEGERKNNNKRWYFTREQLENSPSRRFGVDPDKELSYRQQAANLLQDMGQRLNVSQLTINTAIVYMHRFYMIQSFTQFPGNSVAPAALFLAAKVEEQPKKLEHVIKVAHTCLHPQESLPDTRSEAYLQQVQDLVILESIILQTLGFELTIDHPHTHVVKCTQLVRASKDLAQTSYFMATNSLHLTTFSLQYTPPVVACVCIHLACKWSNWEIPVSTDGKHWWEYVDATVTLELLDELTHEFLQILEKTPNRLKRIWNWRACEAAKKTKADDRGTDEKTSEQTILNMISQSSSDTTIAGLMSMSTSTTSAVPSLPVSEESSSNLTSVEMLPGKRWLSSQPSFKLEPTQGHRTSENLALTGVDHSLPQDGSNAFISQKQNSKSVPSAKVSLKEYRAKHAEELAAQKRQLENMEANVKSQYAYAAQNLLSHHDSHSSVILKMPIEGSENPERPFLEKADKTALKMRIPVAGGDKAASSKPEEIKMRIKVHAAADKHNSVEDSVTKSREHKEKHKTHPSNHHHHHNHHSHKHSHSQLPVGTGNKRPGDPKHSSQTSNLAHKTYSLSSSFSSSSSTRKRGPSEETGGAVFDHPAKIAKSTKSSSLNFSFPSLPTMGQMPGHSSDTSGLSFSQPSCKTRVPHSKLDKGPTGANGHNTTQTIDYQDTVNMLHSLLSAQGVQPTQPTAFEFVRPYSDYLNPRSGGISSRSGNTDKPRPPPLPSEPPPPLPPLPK
# Protocol: (§1) Lanthascreen experiments were performed using commercially available reagents (Thermo Fisher) and according to the manufacturer’s instructions.
# [2] = target: T2, CDK2–cyclin A (Homo sapiens, UniProt P24941); experiment: Lanthascreen kinase binding assay, CDK2; conditions: for Lanthascreen signal, sheet CDK2: raw replicates, experiment r36-r46
# T2 construct: purchased Thermo Fisher
# Protocol: as §1
# [3] = target: T3, CDK13 (Homo sapiens, UniProt Q14004+Q16531); experiment: Label-free quantitative mass spectrometry in MDA-MB-231 cells, CDK13; type: cell-based; conditions: for CDK13 peptide count: label-free quantitative MS, replicate values; for CDK13 peptide count (DMSO-normalised): normalised to DMSO = 1, replicate values
# T3 construct: endogenous in cells; host or cells: MDA-MB-231
# T3 sequence (Q14004 whole entry): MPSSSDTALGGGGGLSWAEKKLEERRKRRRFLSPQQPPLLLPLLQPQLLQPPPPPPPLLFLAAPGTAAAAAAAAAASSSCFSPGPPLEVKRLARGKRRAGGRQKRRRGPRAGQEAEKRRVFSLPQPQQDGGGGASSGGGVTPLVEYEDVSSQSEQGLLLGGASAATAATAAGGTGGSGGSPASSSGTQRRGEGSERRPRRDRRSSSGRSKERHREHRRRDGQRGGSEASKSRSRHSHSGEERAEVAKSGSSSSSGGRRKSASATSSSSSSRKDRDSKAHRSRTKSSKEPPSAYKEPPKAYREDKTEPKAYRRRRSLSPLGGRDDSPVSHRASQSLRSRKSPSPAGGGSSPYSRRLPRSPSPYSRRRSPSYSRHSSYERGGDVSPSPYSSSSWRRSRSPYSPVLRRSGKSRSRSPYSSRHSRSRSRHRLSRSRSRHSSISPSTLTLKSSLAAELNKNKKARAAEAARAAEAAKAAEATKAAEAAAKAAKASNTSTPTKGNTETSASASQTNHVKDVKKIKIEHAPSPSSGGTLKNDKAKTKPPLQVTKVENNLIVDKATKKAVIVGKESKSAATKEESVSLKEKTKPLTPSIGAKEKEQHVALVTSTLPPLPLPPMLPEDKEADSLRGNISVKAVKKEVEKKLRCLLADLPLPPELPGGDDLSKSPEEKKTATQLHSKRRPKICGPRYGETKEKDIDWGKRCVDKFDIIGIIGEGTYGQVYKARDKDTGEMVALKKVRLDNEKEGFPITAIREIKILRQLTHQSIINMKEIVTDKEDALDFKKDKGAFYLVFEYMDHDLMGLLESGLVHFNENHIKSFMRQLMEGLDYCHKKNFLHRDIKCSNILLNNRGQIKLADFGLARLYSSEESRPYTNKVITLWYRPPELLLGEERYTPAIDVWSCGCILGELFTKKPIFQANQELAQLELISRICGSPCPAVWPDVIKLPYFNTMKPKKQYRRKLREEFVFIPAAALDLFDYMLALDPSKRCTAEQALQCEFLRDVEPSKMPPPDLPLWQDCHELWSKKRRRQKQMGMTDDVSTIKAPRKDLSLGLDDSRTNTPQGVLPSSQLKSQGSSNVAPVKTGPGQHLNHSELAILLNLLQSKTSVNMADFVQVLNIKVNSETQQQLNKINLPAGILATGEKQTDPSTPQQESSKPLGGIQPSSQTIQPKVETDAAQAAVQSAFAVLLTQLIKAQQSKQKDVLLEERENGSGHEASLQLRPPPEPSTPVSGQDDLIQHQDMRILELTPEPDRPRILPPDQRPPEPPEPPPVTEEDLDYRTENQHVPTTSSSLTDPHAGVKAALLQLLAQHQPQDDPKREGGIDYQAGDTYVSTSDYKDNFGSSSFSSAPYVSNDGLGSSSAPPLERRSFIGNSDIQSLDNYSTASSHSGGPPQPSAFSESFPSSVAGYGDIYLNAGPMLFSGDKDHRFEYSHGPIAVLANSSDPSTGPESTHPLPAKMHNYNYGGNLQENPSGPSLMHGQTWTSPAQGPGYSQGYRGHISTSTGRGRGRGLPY
# T3 sequence (O75909 whole entry partner): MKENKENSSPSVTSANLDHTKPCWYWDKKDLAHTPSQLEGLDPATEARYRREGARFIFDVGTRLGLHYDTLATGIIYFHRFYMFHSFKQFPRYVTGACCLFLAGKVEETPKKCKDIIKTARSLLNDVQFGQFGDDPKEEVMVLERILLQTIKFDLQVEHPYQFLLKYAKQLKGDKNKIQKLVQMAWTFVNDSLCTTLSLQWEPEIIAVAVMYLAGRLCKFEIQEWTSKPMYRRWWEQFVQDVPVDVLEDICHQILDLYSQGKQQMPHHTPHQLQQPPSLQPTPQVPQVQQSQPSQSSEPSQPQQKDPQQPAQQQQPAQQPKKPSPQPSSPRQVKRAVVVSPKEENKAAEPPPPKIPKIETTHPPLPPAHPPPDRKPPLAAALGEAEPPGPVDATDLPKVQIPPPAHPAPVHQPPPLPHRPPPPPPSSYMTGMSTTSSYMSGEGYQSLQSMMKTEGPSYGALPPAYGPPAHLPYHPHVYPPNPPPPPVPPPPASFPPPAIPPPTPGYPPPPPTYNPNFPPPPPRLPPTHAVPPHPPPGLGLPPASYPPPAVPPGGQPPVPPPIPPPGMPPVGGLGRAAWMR
# T3 sequence (Q16531 2-1140 limits assumed): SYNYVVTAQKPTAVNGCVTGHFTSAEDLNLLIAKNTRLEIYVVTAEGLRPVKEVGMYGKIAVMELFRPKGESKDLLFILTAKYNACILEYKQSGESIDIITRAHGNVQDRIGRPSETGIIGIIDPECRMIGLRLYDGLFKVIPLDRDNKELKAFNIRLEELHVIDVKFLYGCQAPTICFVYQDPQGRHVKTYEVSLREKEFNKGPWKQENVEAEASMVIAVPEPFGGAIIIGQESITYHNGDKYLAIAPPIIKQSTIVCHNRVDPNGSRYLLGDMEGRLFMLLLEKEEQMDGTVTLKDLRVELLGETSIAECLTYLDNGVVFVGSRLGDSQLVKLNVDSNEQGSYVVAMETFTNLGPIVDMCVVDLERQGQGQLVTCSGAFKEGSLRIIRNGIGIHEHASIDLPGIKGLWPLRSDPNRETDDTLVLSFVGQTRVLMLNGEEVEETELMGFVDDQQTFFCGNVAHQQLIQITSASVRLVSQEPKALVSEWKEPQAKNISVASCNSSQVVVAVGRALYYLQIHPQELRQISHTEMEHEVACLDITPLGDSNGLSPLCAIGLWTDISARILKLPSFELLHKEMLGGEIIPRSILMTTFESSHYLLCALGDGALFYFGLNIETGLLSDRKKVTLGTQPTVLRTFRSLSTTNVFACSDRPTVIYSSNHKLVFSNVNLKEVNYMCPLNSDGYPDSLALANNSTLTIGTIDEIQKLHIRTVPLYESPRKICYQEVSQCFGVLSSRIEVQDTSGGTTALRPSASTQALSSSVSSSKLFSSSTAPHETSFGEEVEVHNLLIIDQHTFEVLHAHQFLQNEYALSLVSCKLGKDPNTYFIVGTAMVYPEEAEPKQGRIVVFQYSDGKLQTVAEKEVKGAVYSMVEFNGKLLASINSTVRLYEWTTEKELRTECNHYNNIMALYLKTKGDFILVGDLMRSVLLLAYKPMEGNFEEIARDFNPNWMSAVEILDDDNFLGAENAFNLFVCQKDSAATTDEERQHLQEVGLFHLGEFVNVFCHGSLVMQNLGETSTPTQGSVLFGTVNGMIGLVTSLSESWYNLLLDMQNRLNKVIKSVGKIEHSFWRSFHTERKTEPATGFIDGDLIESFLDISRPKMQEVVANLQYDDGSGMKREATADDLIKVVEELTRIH
# Protocol: (§2) MDA-MB-231 cells were treated with DMSO or a cyclin K degrader compound at 1 µM for 5 h. Cells were collected by centrifugation and washed with phosphate-buffered saline before snap freezing in liquid nitrogen. Cells were lysed by addition of lysis buffer (8 M urea, 50 mM NaCl, 50 mM 4-(2-hydroxyethyl)-1-piperazineethanesulfonic acid (EPPS) pH 8.5, and protease and phosphatase inhibitors) and homogenization by bead beating (BioSpec) for three repeats of 30 s at 2,400 rpm. Bradford assay was used to determine the final protein concentration in the clarified cell lysate. Then 50 µg of protein for each sample was reduced, alkylated and precipitated using methanol/chloroform as previously described, and the resulting washed precipitated protein was allowed to air dry. Precipitated protein was resuspended in 4 M urea, 50 mM HEPES pH 7.4, followed by dilution to 1 M urea with the addition of 200 mM EPPS, pH 8. Proteins were first digested with LysC (1:50; enzyme:protein) for 12 h at room temperature. The LysC digestion was diluted to 0.5 M urea with 200 mM EPPS pH 8 followed by digestion with trypsin (1:50; enzyme:protein) for 6 h at 37 °C. Sample digests were acidified with formic acid to a pH of 2–3 before desalting using C18 solid phase extraction plates (SOLA, Thermo Fisher Scientific). Desalted peptides were dried in a vacuum-centrifuged and reconstituted in 0.1% formic acid for liquid chromatography–mass spectrometry analysis.
# (§3) Data were collected using a TimsTOF Pro2 (Bruker Daltonics) coupled to a nanoElute LC pump (Bruker Daltonics) via a CaptiveSpray nano-electrospray source. Peptides were separated on a reversed-phase C18 column (25 cm × 75 µm inner diameter, […], IonOpticks) containing an integrated captive spray emitter. Peptides were separated using a 50 min gradient of 2–30% buffer B (acetonitrile in 0.1% formic acid) with a flow rate of 250 nl min^−1 and column temperature maintained at 50 °C.
# (§4) Data-dependent acquisition (DDA) was performed in Parallel Accumulation-Serial Fragmentation (PASEF) mode to determine effective ion mobility windows for downstream diaPASEF data collection. The ddaPASEF parameters included: 100% duty cycle using accumulation and ramp times of 50 ms each, one Trapped Ion Mobility Spectrometry(TIMS)-MS scan and ten PASEF ramps per acquisition cycle. The TIMS-MS survey scan was acquired between 100 m/z and 1,700 m/z and 1/K0 of 0.7–1.3 V s cm^−2. Precursors with one to five charges were selected, and those that reached an intensity threshold of 20,000 arbitrary units were actively excluded for 0.4 min. The quadrupole isolation width was set to 2 m/z for m/z < 700 and 3 m/z for m/z > 800, with the m/z between 700 m/z and 800 m/z being interpolated linearly. […] To perform diaPASEF, the precursor distribution in the DDA m/z-ion mobility plane was used to design an acquisition scheme for data-independent acquisition (DIA) data collection that included two windows in each 50 ms diaPASEF scan. Data were acquired using 16 of these 25 Da precursor double window scans (creating 32 windows) that covered the diagonal scan line for doubly and triply charged precursors, with singly charged precursors able to be excluded by their position in the m/z-ion mobility plane. These precursor isolation windows were defined between 400 m/z and 1,200 m/z and 1/K0 of 0.7–1.3 V s cm^−2.
# (§5) DirectDIA mode includes first extracting the DIA data into a collection of MS2 spectra which are searched using Spectronaut’s Pulsar search engine. The search results are then used to generate a spectral library which is then employed for the targeted analysis of the DIA data. MS/MS spectra were searched against a Swissprot human database (January 2021). Database search criteria largely followed the default settings for directDIA including: tryptic with two missed cleavages, fixed carbomidomethylation of cysteine, and variable oxidation of methionine and acetylation of protein N-termini and precursor Q-value (FDR) cut-off of 0.01. […]
# [4] = tested on: cyclin K; experiment: Label-free quantitative mass spectrometry in MDA-MB-231 cells, cyclin K; type: cell-based, human; conditions: for CCNK peptide count (DMSO-normalised): normalised to DMSO = 1, replicate values
# Protocol: as §2, §3, §4, §5
# [5] = tested on: HEK293T cells; experiment: Drug sensitivity assay (CellTiter-Glo viability) with or without MLN4924 pretreatment; type: cell-based, human; conditions: for EC50: Homo sapiens, HEK-293T; for Toxicity rescue: MLN4924-mediated cytotoxicity rescue, 10 µM used where n.d.
# How it was run: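 Viability of HEK293T–Cas9 cells was compared after 3-day drug treatment with or without 100 nM MLN4924 pretreatment (2 h, versus DMSO). Values are CellTiter-Glo signals relative to DMSO controls.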
# [6] = individual replicates, sheet EDF7
# [7] = label-free quantitative MS, replicate values
# [8] = Supplementary Table 2, HEK293T viability, 72 h, compound alone, read-out: Cellular assays EC50
smiles,measurement,setting,value
CC[C@H](CO)Nc1nc(NCc2nc3cc(Cl)c(Cl)cc3[nH]2)c2ncn(C(C)C)c2n1 [DS17],IC50,[1],3060 nM
same,"Lanthascreen TR-FRET signal (raw ratio), sheet CDK9",[1]; compound 0.038147 nM,0.02187 and 0.01792
same,"Lanthascreen TR-FRET signal (raw ratio), sheet CDK9",[1]; compound 0.152588 nM,0.02168 and 0.01994
same,"Lanthascreen TR-FRET signal (raw ratio), sheet CDK9",[1]; compound 0.610352 nM,0.0196 and 0.01929
same,"Lanthascreen TR-FRET signal (raw ratio), sheet CDK9",[1]; compound 9.76563 nM,0.02026 and 0.01917
same,"Lanthascreen TR-FRET signal (raw ratio), sheet CDK9",[1]; compound 39.0625 nM,0.02086 and 0.01978
same,"Lanthascreen TR-FRET signal (raw ratio), sheet CDK9",[1]; compound 156.25 nM,0.01948 and 0.0176
same,"Lanthascreen TR-FRET signal (raw ratio), sheet CDK9",[1]; compound 625 nM,0.01695 and 0.01459
same,"Lanthascreen TR-FRET signal (raw ratio), sheet CDK9",[1]; compound 2500 nM,0.01153 and 0.01174
same,"Lanthascreen TR-FRET signal (raw ratio), sheet CDK9",[1]; compound 10000 nM,0.006855 and 0.006128
same,"Lanthascreen signal, sheet CDK2",[2]; Compound 0.038147 nM,0.01335 and 0.01346
same,"Lanthascreen signal, sheet CDK2",[2]; Compound 0.152588 nM,0.01372 and 0.01373
same,"Lanthascreen signal, sheet CDK2",[2]; Compound 0.610352 nM,0.01335 and 0.01333
same,"Lanthascreen signal, sheet CDK2",[2]; Compound 9.76563 nM,0.01387 and 0.01379
same,"Lanthascreen signal, sheet CDK2",[2]; Compound 39.0625 nM,0.01306 and 0.01354
same,"Lanthascreen signal, sheet CDK2",[2]; Compound 156.25 nM,0.01303 and 0.01259
same,"Lanthascreen signal, sheet CDK2",[2]; Compound 625 nM,0.01178 and 0.01167
same,"Lanthascreen signal, sheet CDK2",[2]; Compound 2500 nM,0.01002 and 0.01073
same,"Lanthascreen signal, sheet CDK2",[2]; Compound 10000 nM,0.0065 and 0.006945
same,IC50,"[2]; Supplementary Table 2, read-out: Lanthascreen IC50 [nM] CDK2",10300 nM
same,CDK13 peptide count,[3],156.014 and 130.628
same,CDK13 peptide count (DMSO-normalised),[3],0.2321 and 0.2007
same,"cyclin K depletion, result in words","[4]; MDA-MB-231 cells, 1 µM, 5 h",more effective at depleting cyclin K than CR8
same,cyclin K abundance (label-free MS),[4]; [6],47.1483 and 71.6427
same,cyclin K abundance (label-free MS),[4]; [7],47.1483 and 71.6427
same,CCNK peptide count (DMSO-normalised),[4],0.02576 and 0.03985
same,average CCNK peptide count,[4]; sheet EDF7,59.3955
same,EC50,[5]; [8],93 nM
same,Toxicity rescue,[5]; Supplementary Table 2,53%
"CCC(CO)Nc1nc(NCc2ccc(-c3ccccn3)cc2)c2ncn(C(C)C)c2n1 (centres unmarked) [CR8, reference compound]",IC50,[1],44 nM
same,CDK13 peptide count,[3],225.708 and 137.684
same,CDK13 peptide count (DMSO-normalised),[3],0.3358 and 0.2116
same,cyclin K abundance (label-free MS),[4]; [6],122.337 and 71.6906
same,cyclin K abundance (label-free MS),[4]; [7],122.337 and 71.6906
same,CCNK peptide count (DMSO-normalised),[4],0.06684 and 0.03988
same,average CCNK peptide count,[4]; sheet EDF7,97.0136
same,viability assay signal (normalized),"[5]; 2 nM, + MLN4924",1.107 and 1.008
same,viability assay signal (normalized),"[5]; 2 nM, without MLN4924",1.041 and 1.037
same,viability assay signal (normalized),"[5]; 4.69 nM, + MLN4924",1.279 and 1.055
same,viability assay signal (normalized),"[5]; 4.69 nM, without MLN4924",1.03 and 1.007
same,viability assay signal (normalized),"[5]; 11 nM, + MLN4924",1.009 and 1.091
same,viability assay signal (normalized),"[5]; 11 nM, without MLN4924",1.0171 and 1.083
same,viability assay signal (normalized),"[5]; 25.7 nM, + MLN4924",1.13 and 1.18
same,viability assay signal (normalized),"[5]; 25.7 nM, without MLN4924",0.9174 and 1.057
same,viability assay signal (normalized),"[5]; 141 nM, + MLN4924",1.076 and 1.102
same,viability assay signal (normalized),"[5]; 141 nM, without MLN4924",0.4857 and 0.5122
same,viability assay signal (normalized),"[5]; 331 nM, + MLN4924",0.8705 and 0.873
same,viability assay signal (normalized),"[5]; 331 nM, without MLN4924",0.3951 and 0.3542
same,viability assay signal (normalized),"[5]; 4270 nM, + MLN4924",0.4449 and 0.4383
same,viability assay signal (normalized),"[5]; 4270 nM, without MLN4924",0.4332 and 0.4197
same,viability assay signal (normalized),"[5]; 10000 nM, + MLN4924",0.4134 and 0.5002
same,viability assay signal (normalized),"[5]; 10000 nM, without MLN4924",0.424 and 0.4316
same,EC50,"[5]; Supplementary Fig. 5, HEK293T, CellTiter Glo, 72h, pre-treatment with 100 nM MLN4924, read-out: Viability EC50, with MLN4924",519 nM
same,EC50,"[5]; Supplementary Fig. 5, HEK293T, CellTiter Glo, 72h, read-out: Viability EC50, no MLN4924",78 nM
same,EC50,[5]; [8],159 nM
same,Toxicity rescue,[5]; Supplementary Table 2,342%
